Reference: patent publication EP1018560A1, “VECTORS FOR TREATING CANCER” (Dnavec Research Inc., priority 1997, dated 1999)
Where a name gives a salt, the structure may show the parent alone. Starred links: 1 amine or outer side, 2 acyl side, 3 side chain; linkers in the order of their positions; H or OH if unused. Positions of bridges follow the written chain, without caps; N, C: chain ends. Non-standard residues stand in square brackets, D forms with d. Residues, ends and D or L forms follow the SMILES beside them. Chains are numbered I, II in the order given. Actinocin(9to1) = Cc1c2oc3c(C)ccc(C(=O)[*:1])c3nc-2c(C(=O)[*:2])c(N)c1=O; NMeV = CN[C@H](C(=O)O)C(C)C; Sar = CNCC(=O)O

Experiments:
U2OS cells (p53+) = test: Potentiation of p53-dependent suppression of expression by antitumor agents (β-galactosidase activity); assay type: cell-based
Procedure: U2OS cells (p53+) that had been placed into six-well plates (6 x 10^5 cells per well) on the previous day were infected with AxYp53RECre at the indicated MOIs. Various compounds (actinomycin D, doxorubicin hydrochloride, etoposide, and nocodazole, all from Sigma, USA) were then added at the indicated concentrations. On the next day, the compounds were removed, and AxCAYLLZ was infected at the indicated MOIs. Six days later, crude extracts of infected cells were prepared and assayed for β-galactosidase activity similarly as described in 3-1). […]

[1] = tested on: p53-Deficient Saos2 cells; test: Cell death specific to p53-deficient cells (ganciclovir sensitivity, viable cell number); assay type: cell-based, human; conditions: combination of AxYp53RECre, AxCAYLTK, and ganciclovir; Saos2 versus U20S cells
Procedure: p53-Deficient Saos2 cells and p53-expressing U20S cells were inoculated then cultured in the presence of 50 ng/ml nocodazole (Sigma, USA) on the next day. Nocodazole was removed on the following day, and the cells were infected with AxYp53RECre at the indicated MOIs. On the day after that, the cells were further infected with AxCAYLTK at the indicated MOIs. Three days later, infected cells were placed into 96-well plates at a quantity of 2000 cells/well, and various concentrations of ganciclovir (Nippon Roche) were added thereto. Seven days later, the number of viable cells was counted using a Cell Titer 96 AQueous Non-Radioactive Cell Proliferation Assay (Promega, USA). […] In this figure, "% viable cell number" refers to the relative number of cells compared to the number of cells in the absence of ganciclovir taken as 100. Mean values of five samples are shown. Error bars show standard deviations.

## COc1cc([C@@H]2c3cc4c(cc3[C@@H](O[C@@H]3O[C@@H]5CO[C@@H](C)O[C@H]5[C@H](O)[C@H]3O)[C@H]3COC(=O)[C@H]23)OCO4)cc(OC)c1O [etoposide]
U2OS cells (p53+); AxCAYLLS MOI 10, pAxYp53RECre MOI 0, 1000 ng/ml etoposide (reference)
  Remaining β-galactosidase activity: 100%
U2OS cells (p53+); AxCAYLLS MOI 10, pAxYp53RECre MOI 30, 1000 ng/ml etoposide
  Remaining β-galactosidase activity: 0.6%

## Cc1c2oc3c(C)ccc(C(=O)N[C@@H]4C(=O)N[C@H](C(C)C)C(=O)N5CCC[C@H]5C(=O)N(C)CC(=O)N(C)[C@@H](C(C)C)C(=O)O[C@@H]4C)c3nc-2c(C(=O)N[C@@H]2C(=O)N[C@H](C(C)C)C(=O)N3CCC[C@H]3C(=O)N(C)CC(=O)N(C)[C@@H](C(C)C)C(=O)O[C@@H]2C)c(N)c1=O [actinomycin D] (I: T[dV]P[Sar][NMeV] / II: T[dV]P[Sar][NMeV]; ester I:1-I:C, II:1-II:C; linker I:N-II:N via Actinocin(9to1))
U2OS cells (p53+); AxCAYLLS MOI 10, pAxYp53RECre MOI 0, 10 ng/ml actinomycin D (reference)
  Remaining β-galactosidase activity: 100%
U2OS cells (p53+); AxCAYLLS MOI 10, pAxYp53RECre MOI 30, 10 ng/ml actinomycin D
  Remaining β-galactosidase activity: 2.4%

## Nc1nc(O)c2ncn(COC(CO)CO)c2n1 [ganciclovir]
[1]
  cell death: caused cell death specific to p53-deficient cells

## COC(=O)Nc1nc2ccc(C(=O)c3cccs3)cc2[nH]1 [nocodazole]
U2OS cells (p53+); AxCAYLLS MOI 10, pAxYp53RECre MOI 0, 50 ng/ml nocodazole (reference)
  Remaining β-galactosidase activity: 100%
U2OS cells (p53+); AxCAYLLS MOI 10, pAxYp53RECre MOI 10, 50 ng/ml nocodazole
  Remaining β-galactosidase activity: 31%

## COc1cccc2c1C(=O)c1c(O)c3c(c(O)c1C2=O)C[C@@](O)(C(=O)CO)C[C@@H]3O[C@H]1C[C@H](N)[C@H](O)[C@H](C)O1 [doxorubicin, doxorubicin hydrochloride]
U2OS cells (p53+); AxCAYLLS MOI 10, pAxYp53RECre MOI 0, 100 ng/ml doxorubicin (reference)
  Remaining β-galactosidase activity: 100%
U2OS cells (p53+); AxCAYLLS MOI 10, pAxYp53RECre MOI 30, 100 ng/ml doxorubicin
  Remaining β-galactosidase activity: 0.5%
